We go through nine compounds from patent US20110104186A1, “Small molecule immunopotentiators and assays for their detection” (priority 2004, published 2011).

For this test, the system named is TNF-α production. As to the kind of experiment: In vitro inhibition of TNF-α production by 1H-imidazoquinolines. The test is classed as cell-based.
In turn, `CNC(=O)c1cc(Oc2ccc3[nH]c(Nc4ccccc4C(C)C)nc3c2)ccn1` [Example 2, N-methyl-4-[(2-{[2-(1-methylethyl)phenyl]amino}-1H-benzimidazol-5-yl)oxy]pyridine-2-carboxamide] showed an IC50 of 4.81 µM.
In the case of “1-[2-(methyloxy)phenyl]-4-{[3,4,5-tris(methyloxy)phenyl]carbonyl} piperazine [Example 16]”, the IC50 is 8.02 µM.
With “1-[(3-fluorophenyl)carbonyl]-4-{[4-(trifluoromethyl)phenyl] methyl}piperazine [Example 12]” the figure was 3.66 µM; with “3-pentyl-7-[(4-phenylpiperazin-1-yl)carbonyl]-2-thioxo-2,3-dihydroquinazolin-4(1H)-one [Example 18]”, greater than 10 µM.
The figure for “3-({4-[(2E)-3-phenylprop-2-enyl]piperazin-1-yl}carbonyl)-7-oxabicyclo[2.2.1]heptane-2-carboxylic acid [Example 15]” is 3.68 µM; for “4-({2-[(4-chlorophenyl)amino]-1-methyl-1H-benzimidazol-5-yl}oxy)-N-1,3-thiazol-2-ylpyridine-2-carboxamide [Example 9]” it is 0.205 µM; for “3-[(4-pyridin-2-ylpiperazin-1-yl)carbonyl]-7-oxabicyclo[2.2.1]heptane-2-carboxylic acid [Example 17]” it is 2.67 µM.
With `COc1cccc(C(=O)N2CCc3cc(OC)c(OC)cc3C2C)c1` (stereo not drawn) [Example 22] the figure was greater than 10 µM; with `CCOc1ccccc1C(=O)N1CCN(c2cccc(Cl)c2)CC1` [Example 14, 1-(3-chlorophenyl)-4-{[2-(ethyloxy)phenyl]carbonyl}-piperazine], 1.38 µM.

The IC50 is the point on the concentration scale where inhibition reaches its midpoint. Low values mean greater potency in that assay, high ones weaker potency in that assay.
